Earlier results as cited in patent publication US9770413B2, “Amphiphilic dendron-coils, micelles thereof and uses” (THE BOARD OF TRUSTEES OF THE UNIVERSITY OF ILLINOIS, priority 2011, dated 2017).

Target: folate receptors (FR)

## Nc1nc2ncc(CNc3ccc(C(=O)N[C@@H](CCC(=O)O)C(=O)O)cc3)nc2c(=O)[nH]1 [FA, folic acid]
  Kd: ~0.1 nM
